Measurements reported in patent US5981517A, “Androstene derivatives” (priority 1997, dated 1999).
Like-named read-outs stand apart in the source and are kept apart here. Each block holds one compound with its values, some of them ahead of it.

How the values were obtained:
[1] = tested on: forearm of a human volunteer; test: Human vasoconstriction test; assay type: in vivo; details: 10 mM
Experimental: Test compounds (10 mM) were dissolved in ethanol/propylene glycol (9/1) solution, and 50 μL of the mixtures were applied to circular patches, 8 mm in diameter. After ethanol evaporation, the patches were applied to the forearm of a human volunteer, and covered with a water impervious film for 3 hours. The intensity of vasoconstriction was judged 1, 8, 17 and 24 hours after the patches were removed.
The grading scale for the vasoconstriction activity was as follows: 0, normal skin; 1, slight pallor of indistinct outline; 2, pallor with at least two corners outlined; 3, even pallor with a clear outline of the application sites; 4, very intense pallor.

[2] = tested on: forearms of a human volunteer; test: Further human vasoconstriction testing, Method 1; assay type: in vivo; details: 10 mM
Experimental: The mixtures, in 50 μL amounts, were applied to circular patches (8 mm diameter). After evaporation of ethanol, the patches were applied to the forearms of a human volunteer, and covered with a water impervious film for 3 hr. The intensity of vasoconstriction (scale 0-4) was judged at various time intervals after removal of the patches. The grading scale was as follows: 0, normal skin; 1, slight pallor of indistinct outline; 2, pallor with at least two corners outlined; 3, even pallor with a clear outline of the application sites; 4, very intense pallor. The skin tests (2-4 tests on each compound) were performed on the same person.

[3] = molecular target: T1, rat lung glucocorticoid receptor (Rattus norvegicus, UniProt P06536); test: Receptor binding studies ([3H]triamcinolone acetonide displacement); details: for Relative binding affinity (RBA): with respect to dexamethasone (RBA = 100); for RBA: further receptor binding studies (Table X), dexamethasone = 100, * mean ± SE of 3-5 results
T1 construct: Immediately after resection of the lungs, the tissue was frozen in ice; The cytosol was prepared; from tissue; host or cells: lung cytosol of adrenalectomized male Sprague-Dawley rats
T1 sequence (P06536 1-795): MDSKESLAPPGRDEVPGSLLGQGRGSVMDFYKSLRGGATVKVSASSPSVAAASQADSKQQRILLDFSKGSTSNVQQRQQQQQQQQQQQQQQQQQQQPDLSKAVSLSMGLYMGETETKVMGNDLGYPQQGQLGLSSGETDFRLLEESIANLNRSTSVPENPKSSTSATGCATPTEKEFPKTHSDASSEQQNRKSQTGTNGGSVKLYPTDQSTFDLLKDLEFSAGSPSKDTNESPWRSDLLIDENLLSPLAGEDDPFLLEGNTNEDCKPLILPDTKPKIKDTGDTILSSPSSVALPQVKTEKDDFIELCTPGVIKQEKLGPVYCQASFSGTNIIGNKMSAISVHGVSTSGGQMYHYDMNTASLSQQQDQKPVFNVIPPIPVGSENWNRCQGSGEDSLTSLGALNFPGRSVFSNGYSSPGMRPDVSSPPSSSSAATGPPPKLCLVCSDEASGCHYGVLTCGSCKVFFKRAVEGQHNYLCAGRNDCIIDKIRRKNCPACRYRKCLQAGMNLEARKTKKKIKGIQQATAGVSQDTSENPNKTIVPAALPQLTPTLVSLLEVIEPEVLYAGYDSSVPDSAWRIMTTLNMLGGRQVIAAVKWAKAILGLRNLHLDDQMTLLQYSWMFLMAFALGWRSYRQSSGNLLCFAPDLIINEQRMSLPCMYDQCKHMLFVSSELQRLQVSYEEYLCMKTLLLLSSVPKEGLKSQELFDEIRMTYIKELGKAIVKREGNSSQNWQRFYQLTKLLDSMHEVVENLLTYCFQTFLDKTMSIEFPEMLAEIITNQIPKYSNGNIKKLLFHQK
Experimental: Male Sprague-Dawley rats, each weighing 150 to 200 g, were used 6 days after adrenalectomy. Rats were sacrificed by decapitation. Immediately after resection of the lungs, the tissue was frozen in ice. […] Portions (5 ml) of the cytosol were frozen in liquid nitrogen and stored at -80° C.
The cytosol was thawed in a water bath and diluted with 1 part of incubation buffer containing a 15 mM concentration of diisopropyl fluorophosphate. […] After a 2 hour incubation period at room temperature (24° C.), the unbound steroid was removed by addition of a 2% suspension of activated charcoal in incubation buffer (400 μL). The mixture was incubated for 5 minutes at room temperature and then was centrifuged at about 10,000 g for 3 minutes in the microcentrifuge. The radioactivity (cpm) in the supernatant (400 μL) was determined by liquid scintillation counting.
The data is fitted to the following logistic function:
B=T-T * C^N /(C^N +IC50^N)+NS,
where B=CPM in the presence of competitor, T=CPM in the absence of competitor, C=competitor concentration, N=Hill slope factor, and NS=cpm under non-specific binding conditions.
For the representative compound of the invention B, receptor binding affinity was investigated with and without Δ^1 -cortienic acid in the incubation solution to study the effect of Δ^1 -cortienic acid on the receptor binding.
Further studies to evaluate the relative receptor binding affinities of compounds of the invention, other compounds of formula (VII) hereinabove and well-known anti-inflammatory steroids were undertaken, using the methods described in the RECEPTOR BINDING STUDIES set forth above. […] For comparison purposes, the following compounds having formula (VII) above were also tested: […]

[4] = tested on: forearm of a human volunteer; test: Further human vasoconstriction testing, Method 2; assay type: in vivo; parameters: key: +: "positive" (pallor could be observed); -: "negative" (pallor could not be detected)
Experimental: The mixtures, in 20 μL amounts, were applied to circular patches (1/4 inch diameter). The patches were applied to the forearm of a human volunteer, and covered with a water impervious film for 3 hr. Vasoconstriction activity was judged by the appearance of pallor at various time points after the patches were removed. Tests were performed on the same person and the results were obtained from 2-4 observations.
In TABLE XIV above, "-" means a negative result was obtained. In other tables herein, "-" means not tested.
In TABLE XIV above, the results of a simpler method of judging vasoconstriction activity was used in which only "positive" (pallor could be observed) or "negative" (pallor could not be detected) results were recorded.

[5] = rat lung cytosol, 10 nM [3H]triamcinolone acetonide, with Δ1-cortienic acid, 2 h, 24° C., read-out: IC50

Structure (SMILES): C[C@@H]1C[C@H]2[C@@H]3CCC4=CC(=O)C=C[C@]4(C)[C@@]3(F)[C@@H](O)C[C@]2(C)[C@@]1(O)C(=O)CO [Dexamethasone, reference compound]
Vasoconstriction activity ([1]; 1 hour after patch removal): 0
Vasoconstriction activity ([1]; 8 hours after patch removal): 1
Vasoconstriction activity ([1]; 17 hours after patch removal): 1
Vasoconstriction activity ([1]; 24 hours after patch removal): 1
Vasoconstriction activity ([2]; 3 Hours): 1
Vasoconstriction activity ([2]; 20 Hours): 1

Structure (SMILES): COC(=O)[C@@]1(O)CC[C@H]2[C@@H]3CCC4=CC(=O)C=C[C@]4(C)[C@H]3[C@@H](O)C[C@@]21C [E]
IC50 [3]: > 2000 nM
Relative binding affinity (RBA) ([3]; with Δ1-cortienic acid): < 1

Structure (SMILES): CCOC(=O)[C@@]1(O)CC[C@H]2[C@@H]3CCC4=CC(=O)C=C[C@]4(C)[C@H]3[C@@H](O)C[C@@]21C [F]
IC50 [3, 5]: > 2000 nM
Relative binding affinity (RBA) ([3]; with Δ1-cortienic acid): < 1

RBA [3]: 136 ± 5
Structure (SMILES): CC(=O)[C@@]1(O)CC[C@H]2[C@@H]3C[C@H](C)C4=CC(=O)C=C[C@]4(C)[C@@]3(F)[C@@H](O)C[C@@]21C [Fluorometholone, reference compound]

Structure (SMILES): CC(C)OC(=O)[C@@]1(O)CC[C@H]2[C@@H]3CCC4=CC(=O)C=C[C@]4(C)[C@H]3[C@@H](O)C[C@@]21C [G]
IC50 [3, 5]: > 2000 nM
Relative binding affinity (RBA) ([3]; with Δ1-cortienic acid): < 1

Structure (SMILES): C[C@]12C=CC(=O)C=C1CC[C@@H]1[C@@H]2[C@@H](O)C[C@@]2(C)[C@H]1CC[C@]2(OC(=O)C(Cl)Cl)C(=O)O [H, 17α-dichloroacetoxy-11β-hydroxyandrosta-1,4-dien-3-one-17β-carboxylic acid]
IC50 [3, 5]: > 2000 nM
Relative binding affinity (RBA) ([3]; with Δ1-cortienic acid): < 2

Structure (SMILES): C[C@@H]1C[C@H]2[C@@H]3CCC4=CC(=O)C=C[C@]4(C)[C@@]3(F)[C@@H](O)C[C@]2(C)[C@@]1(OC(=O)C(Cl)Cl)C(=O)OCCl [K, chloromethyl 17α-dichloroacetoxy-9α-fluoro-11β-hydroxy-16α-methylandrosta-1,4-dien-3-one-17β-carboxylate]
Vasoconstriction activity ([4]; 4 Hours, 0.01 mM): -
Vasoconstriction activity ([4]; 4 Hours, 0.05 mM): -
Vasoconstriction activity ([4]; 4 Hours, 0.1 mM): -
Vasoconstriction activity ([4]; 4 Hours, 0.5 mM): -
Vasoconstriction activity ([4]; 4 Hours, 1 mM): +
Vasoconstriction activity ([4]; 4 Hours, 5 mM): +
Vasoconstriction activity ([4]; 8 Hours, 0.01 mM): -
Vasoconstriction activity ([4]; 8 Hours, 0.05 mM): -
Vasoconstriction activity ([4]; 8 Hours, 0.1 mM): +
Vasoconstriction activity ([4]; 8 Hours, 0.5 mM): +
Vasoconstriction activity ([4]; 8 Hours, 1 mM): +
Vasoconstriction activity ([4]; 8 Hours, 5 mM): +
Vasoconstriction activity ([4]; 10-22 hours, 0.01 mM): -
Vasoconstriction activity ([4]; 10-22 hours, 0.05 mM): -
Vasoconstriction activity ([4]; 10-22 hours, 0.1 mM): -
Vasoconstriction activity ([4]; 10-22 hours, 0.5 mM): +
Vasoconstriction activity ([4]; 10-22 hours, 1 mM): +
Vasoconstriction activity ([4]; 10-22 hours, 5 mM): +
Vasoconstriction activity ([4]; 24 Hours, 0.01 mM): -
Vasoconstriction activity ([4]; 24 Hours, 0.05 mM): -
Vasoconstriction activity ([4]; 24 Hours, 0.1 mM): -
Vasoconstriction activity ([4]; 24 Hours, 0.5 mM): +
Vasoconstriction activity ([4]; 24 Hours, 1 mM): +
Vasoconstriction activity ([4]; 24 Hours, 5 mM): +

Structure (SMILES): COC(=O)[C@@]1(OC(=O)CCl)[C@H](C)C[C@H]2[C@@H]3CCC4=CC(=O)C=C[C@]4(C)[C@@]3(F)[C@@H](O)C[C@@]21C [S]
Vasoconstriction activity ([4]; 4 Hours, 0.01 mM): -
Vasoconstriction activity ([4]; 4 Hours, 0.05 mM): -
Vasoconstriction activity ([4]; 4 Hours, 0.1 mM): -
Vasoconstriction activity ([4]; 4 Hours, 0.5 mM): -
Vasoconstriction activity ([4]; 4 Hours, 1 mM): -
Vasoconstriction activity ([4]; 4 Hours, 5 mM): -

Structure (SMILES): CCOC(=O)[C@@]1(OC(=O)CCl)[C@H](C)C[C@H]2[C@@H]3CCC4=CC(=O)C=C[C@]4(C)[C@@]3(F)[C@@H](O)C[C@@]21C [T]
Vasoconstriction activity ([4]; 4 Hours, 0.01 mM): -
Vasoconstriction activity ([4]; 4 Hours, 0.05 mM): -
Vasoconstriction activity ([4]; 4 Hours, 0.1 mM): -
Vasoconstriction activity ([4]; 4 Hours, 0.5 mM): -
Vasoconstriction activity ([4]; 4 Hours, 1 mM): -
Vasoconstriction activity ([4]; 4 Hours, 5 mM): -

Structure (SMILES): CC1(C)O[C@@H]2C[C@H]3[C@@H]4CCC5=CC(=O)C=C[C@]5(C)[C@@]4(F)[C@@H](O)C[C@]3(C)[C@]2(C(=O)CO)O1 [Triamcinolone acetonide, reference compound]
IC50 [3]: 13 nM
RBA [3]: 630
Relative binding affinity (RBA) ([3]; with Δ1-cortienic acid): 628
